Source: patent US20250360167A1 (Keryx Biopharmaceuticals, Inc., priority 2013, published 2025)

What was measured:
ferritin = assay: Phase 2 trial (Example 2): ferritin; assay type: in vivo, human
From the text: Change in serum phosphorus, ferritin and TSAT levels from baseline to end of treatment after 12 weeks are the primary endpoints.
The key secondary endpoints of the study were the mean changes in ferritin, hemoglobin and FGF-23 from baseline to the end of the 12-week treatment period versus placebo in the ITT group.

serum bicarbonate = assay: Phase 3 trial (Example 1): serum bicarbonate concentration; assay type: in vivo, human; conditions: for Serum Bicarbonate Concentration, Mean / Serum Bicarbonate Concentration, Median / Serum Bicarbonate Concentration, LS Mean / Serum Bicarbonate Concentration, Change from Baseline, Mean / Serum Bicarbonate Concentration, Change from Baseline, Median / Serum Bicarbonate Concentration, Treatment Differences, LS Mean (KRX-0502) − LS Mean (control), (SE): Table 18; for Serum Bicarbonate Concentration, LS Mean: ANCOVA
Description: Serum bicarbonate was performed at a local laboratory and was done at the Randomization Visit (Visit 4); at Visits 11 (Week 12), 14 (Week 24), 17 (Week 36), 20 (Week 48) and 21 (Week 52) during the Safety Assessment Period; and at Visit 25 (Week 56) of the Efficacy Assessment Period.
• 1. Change in serum calcium concentration at Weeks 12, 24, 36, 48, and 52 as compared to baseline (Visit 4). This variable will be analyzed using LOCF methodology. ANCOVA will be employed. The model will include treatment (fixed effect), and baseline (covariate). • 2. Change in ferritin, and TSAT at Weeks 12, 24, 36 and 48 as compared to baseline (Visit 4). This variable will be analyzed using LOCF methodology. ANCOVA will be employed. The model will include treatment (fixed effect), and baseline (covariate). • 3. Change in serum iron and TIBC at Weeks 12, 24, 36, 48, and 52 as compared to baseline (Visit 4). This variable will be analyzed using LOCF methodology. ANCOVA will be employed. The model will include treatment (fixed effect), and baseline (covariate). • 4. Change in Ca x P product at Weeks 12, 24, 36, 48, and 52 as compared to baseline (Visit 4). This variable will be analyzed using LOCF methodology. ANCOVA will be employed. The model will include treatment (fixed effect), and baseline (covariate). • 5. Change in iPTH at Weeks 12, 36, 52, and 56 as compared to baseline (Visit 4). This variable will be analyzed using LOCF methodology. ANCOVA will be employed. The model will include treatment (fixed effect), and baseline (covariate). • 6. Change in serum […], vitamin A, vitamin B-12, vitamin E, vitamin K and folic acid at Weeks 12, 36, and 52 as compared to baseline (Visit 4). This variable will be analyzed using LOCF methodology. ANCOVA will be employed. The model will include treatment (fixed effect), and baseline (covariate). • 7. Change in serum bicarbonate concentration at Weeks 12, 36, and 52 as compared to baseline (Visit 4). This variable will be analyzed using LOCF methodology. ANCOVA will be employed. The model will include treatment (fixed effect), and baseline (covariate). • 8. Change in IV iron intake at Weeks 12, 24, 36, 48, and 52 as compared to baseline (Visit 4). This variable will be analyzed using LOCF methodology. ANCOVA will be employed. The model will include treatment (fixed effect), and baseline (covariate). • 9. Change in the use of EPO (ESA) administered at Weeks 12, 24, 36, 48, and 52 as compared to baseline (Visit 4). This variable will be analyzed using LOCF methodology. ANCOVA will be employed. The model will include treatment (fixed effect), and baseline (covariate). • 10. Change in the use of Vitamin D supplementation (and its analogs) and Sensipar (cinacalcet) at Weeks 12, 24, 36, 48, and 52 as compared to baseline (Visit 4). This variable will be analyzed using LOCF methodology. ANCOVA will be employed. The model will include treatment (fixed effect), and baseline (covariate). • 11. Change in LDL, HDL, and triglycerides at Weeks 12, 36, and 52 as compared to baseline (Visit 4). This variable will be analyzed using LOCF methodology. ANCOVA will be employed. The model will include treatment (fixed effect), and baseline (covariate).

[1] = Day 0 Baseline, Safety Assessment Period

## iron (+3), x (1, 2, 3-propanetricarboxylic acid, 2-hydroxy-), y (H2O) [KRX-0502]
ferritin; Baseline, ITT group, n = 72
  Mean Ferritin, Baseline: 116 ng/mL
ferritin; Week 12, last observation carried forward, ITT group, n = 72
  Mean Ferritin, End of Treatment (Week 12): 189 ng/mL
ferritin; sample size assumption
  ending ferritin level at Visit 11 (Week 12): approximately 300 ng/mL
Serum bicarbonate; [1]
  Serum Bicarbonate Concentration, Mean: 23.92
  Serum Bicarbonate Concentration, Median: 24.00
Serum bicarbonate; Week 12
  Serum Bicarbonate Concentration, LS Mean: 25.60
  Serum Bicarbonate Concentration, Change from Baseline, Mean: 1.57
  Serum Bicarbonate Concentration, Change from Baseline, Median: 1.05
  Serum Bicarbonate Concentration, Mean: 25.63
  Serum Bicarbonate Concentration, Median: 25.00
  Serum Bicarbonate Concentration, Treatment Differences, LS Mean (KRX-0502) − LS Mean (control), (SE): −0.72 (0.37)
Serum bicarbonate; Week 24
  Serum Bicarbonate Concentration, LS Mean: 25.35
  Serum Bicarbonate Concentration, Change from Baseline, Mean: 1.48
  Serum Bicarbonate Concentration, Change from Baseline, Median: 1.00
  Serum Bicarbonate Concentration, Mean: 25.39
  Serum Bicarbonate Concentration, Median: 25.45
  Serum Bicarbonate Concentration, Treatment Differences, LS Mean (KRX-0502) − LS Mean (control), (SE): −0.39 (0.38)
Serum bicarbonate; Week 36
  Serum Bicarbonate Concentration, LS Mean: 25.22
  Serum Bicarbonate Concentration, Change from Baseline, Mean: 1.36
  Serum Bicarbonate Concentration, Change from Baseline, Median: 1.00
  Serum Bicarbonate Concentration, Mean: 25.27
  Serum Bicarbonate Concentration, Median: 25.00
  Serum Bicarbonate Concentration, Treatment Differences, LS Mean (KRX-0502) − LS Mean (control), (SE): −0.15 (0.34)
Serum bicarbonate; Week 48
  Serum Bicarbonate Concentration, LS Mean: 24.78
  Serum Bicarbonate Concentration, Change from Baseline, Mean: 0.91
  Serum Bicarbonate Concentration, Change from Baseline, Median: 1.00
  Serum Bicarbonate Concentration, Mean: 24.81
  Serum Bicarbonate Concentration, Median: 25.00
  Serum Bicarbonate Concentration, Treatment Differences, LS Mean (KRX-0502) − LS Mean (control), (SE): −0.52 (0.36)
Serum bicarbonate; Week 52
  Serum Bicarbonate Concentration, LS Mean: 24.60
  Serum Bicarbonate Concentration, Change from Baseline, Mean: 0.71
  Serum Bicarbonate Concentration, Change from Baseline, Median: 1.00
  Serum Bicarbonate Concentration, Mean: 24.63
  Serum Bicarbonate Concentration, Median: 25.00
  Serum Bicarbonate Concentration, Treatment Differences, LS Mean (KRX-0502) − LS Mean (control), (SE): −0.70 (0.44)
Serum bicarbonate; administered for a period of 52 weeks, stated as embodiment
  mean increase in serum bicarbonate concentration: 0.71 mEq/L
